Entries after “also recorded” stand apart in the source; their conditions may differ.
Legend:
[1] = test system: drug-naïve STZ-diabetic rats; test: von Frey paw withdrawal thresholds, drug-naïve STZ-diabetic rats, Example 2; assay type: in vivo, rat; details: for Mean duration of action / Time of peak anti-allodynia post-dosing: 7th twice-daily dose; for Mean (±SEM) AUC (area under the normalized PWT versus time curve) / Mean (±SEM) Peak response (PWT) / Mean (±SEM) % MPR at peak: after 7th consecutive twice-daily dose; for Mean (±SEM) % MPR at peak: 100% MPR = full reversal of tactile allodynia
Protocol: Experimental Animals Ethical approval for this study was obtained from the Animal Experimentation Ethics Committee of The University of Queensland. Adult male Sprague-Dawley (SD) rats (222±4 g) were used for this study. Rats were housed in a temperature controlled room (21+2.0 C) with a 12/12 hour light/dark cycle. Food and water were available ad libitum. Initiation of drug administration occurred at 8-11 weeks post-STZ administration for rats in Experiment 1 (PCT-001) and at 10-12 weeks post-STZ administration for rats in Experiment 2 (PCT-007).
Test Article Tranilast was supplied by the Sponsor and stored at −4° C. until use. Gabapentin (100 mg/kg, dissolved in water for injection) was utilized as the positive control for this study.
Test Article and Vehicle Preparation Test article formulations were prepared freshly on the day of administration by weighing the appropriate amount of bulk powder and suspending it in the required volume of vehicle. Carboxymethyl cellulose ((CMC) 0.5% in water for injection) was utilized as the vehicle for this study.
Test Article Administration. […] The maximum oral gavage volume administered in this study was […]. 4.4
STZ-Diabetic Rat Model of Painful Diabetic Neuropathy. Painful diabetic neuropathy is a common long-term complication of diabetes in humans that develops as a result of a sustained biochemical nerve injury. […] Following the induction of diabetes with intravenous STZ at 70-80 mg/kg, it generally takes 6-8 wks for tactile allodynia, the defining symptom of PDN, to fully develop in both rat hindpaws.
Induction of STZ-Diabetes in Rats. On day 0, rats were anaesthetized with 3% isoflurane:97% O2 and a short polyethylene cannula (0.5 mm ID, 0.8 mm OD) was inserted into the jugular vein to facilitate the intravenous (i.v.) administration of a single dose of streptozotocin (STZ: 70-80 mg/kg). After STZ injection, the cannula was removed and the jugular vein was tied off and the wound was closed. Rats received subcutaneous benzylpenicillin (60 mg) prior to surgery to prevent infection and were kept warm during surgical recovery. Rats were housed singly prior to further experimentation and were monitored daily from the time of STZ administration with regard to general health and well-being.
Von Frey Assessment of Paw Withdrawal Thresholds. Calibrated von Frey filaments were used to determine the lowest mechanical threshold required to evoke a brisk paw withdrawal reflex in the rat hindpaws. Briefly, rats were transferred individually to wire mesh testing cages (20 cm×20 cm×20 cm) and allowed to acclimatize for approximately 10-20 min prior to von Frey testing. Commencing with the von Frey filament that produced the 6 g force, the filament was applied to the plantar surface of the hindpaw until the filament buckled slightly. Absence of a response after 3 s prompted use of the next filament of increasing weight. A withdrawal response within 3 s prompted use of the next filament of decreasing weight. Filaments used produced buckling weights of 2, 4, 6, 8, 10, 12, 14, 16, 18 and 20 g. […] Tactile allodynia is regarded as being fully developed when von Frey PWTs in the injured hindpaws are <6 g.
Restoring von-Frey PWTs in the hindpaws from <6 g to pre-STZ surgery levels (12±2 g) is the treatment goal representing full reversal of tactile allodynia. If drug treatment increases PWTs above pre-surgical baseline values (i.e. >12±2 g), such a response is classified as antinociception. Before administration of STZ, baseline von Frey measurements were assessed. Following STZ administration, baseline PWTs were assessed in the hindpaws at week 8-11 to confirm the development of diabetes-induced tactile allodynia.
Dose-Response Curve for Tranilast in Drug-Naive STZ-Diabetic Rats. […]

[2] = test system: STZ-diabetic rats; test: Behavioural observations / adverse effects in STZ-diabetic rats; assay type: in vivo, rat; details: tranilast 30-400 mg/kg oral, 7 consecutive twice-daily bolus doses
Excerpt: Behavioural Observations. STZ-diabetic rats were monitored for visible and audible signs of distress throughout the testing period. The visible signs of distress included behavioural changes such as complete immobility, movement with abnormal gait, agitation, aggression, wet dog shakes, excessive grooming, restlessness with constant movement, repeated sudden movements or staring.

[3] = tranilast 100, 200, 300 and 400 mg/kg oral, 7 consecutive twice-daily doses

COc1ccc(/C=C/C(=O)Nc2ccccc2C(=O)O)cc1OC [Tranilast, 2-[[3-(3,4-dimethoxyphenyl)-1-oxo-2-propenyl]amino]benzoic acid]
Mean (±SEM) von Frey Paw Withdrawal threshold following the 7th consecutive dose ([1]; tranilast 300 mg/kg oral twice-daily, time 0.75 h): 11 ± 1.6 g | Mean (±SEM) von Frey Paw Withdrawal threshold following the 7th consecutive dose ([1]; tranilast 300 mg/kg oral twice-daily, time 1 h): 12.2 ± 1.3 g | Mean (±SEM) von Frey Paw Withdrawal threshold following the 7th consecutive dose ([1]; tranilast 300 mg/kg oral twice-daily, time 1.25 h): 13 ± 1.3 g | Mean (±SEM) von Frey Paw Withdrawal threshold following the 7th consecutive dose ([1]; tranilast 300 mg/kg oral twice-daily, time 1.25 h, listed as tranilast): 13.0 (±1.3) g | Mean (±SEM) von Frey Paw Withdrawal threshold following the 7th consecutive dose ([1]; tranilast 300 mg/kg oral twice-daily, time 1.5 h): 12.4 ± 1.1 g | Mean (±SEM) von Frey Paw Withdrawal threshold following the 7th consecutive dose ([1]; tranilast 300 mg/kg oral twice-daily, time 2 h): 12.0 ± 2.2 g | Mean (±SEM) von Frey Paw Withdrawal threshold following the 7th consecutive dose ([1]; tranilast 300 mg/kg oral twice-daily, time 3 h): 9.0 ± 2.7 g | Relief of tactile allodynia in the hindpaws ([1]; tranilast 300 mg/kg oral, 7 consecutive twice-daily doses (n=5)): significant relief of tactile allodynia | AUC of anti-allodynic response versus time compared with vehicle ([1]; tranilast 300 mg/kg oral, 7th consecutive twice-daily dose): significantly greater (p<0.05) | Mean duration of action ([1]; tranilast 300 mg/kg oral): > 3 h | Time of peak anti-allodynia post-dosing ([1]; tranilast 300 mg/kg oral): 1 to 1.5 h | Mean (±SEM) AUC (area under the normalized PWT versus time curve) ([1]; tranilast 300 mg/kg oral): 17.2 ± 3.3 | Mean (±SEM) Peak response (PWT) ([1]; tranilast 300 mg/kg oral): 13.0 ± 1.3 | Mean (±SEM) % MPR at peak ([1]; tranilast 300 mg/kg oral): 147.8 ± 23.6% | Mean (±SEM) von Frey Paw Withdrawal threshold assessed prior to dose ([1]; tranilast 400 mg/kg oral twice-daily, prior to dose 1): 5.1 ± 0.5 g | Mean (±SEM) von Frey Paw Withdrawal threshold assessed prior to dose ([1]; tranilast 400 mg/kg oral twice-daily, prior to dose 3): 5.1 ± 0.5 g | Mean (±SEM) von Frey Paw Withdrawal threshold assessed prior to dose ([1]; tranilast 400 mg/kg oral twice-daily, prior to dose 5): 4.8 ± 0.5 g | Mean (±SEM) von Frey Paw Withdrawal threshold assessed prior to dose ([1]; tranilast 400 mg/kg oral twice-daily, prior to dose 7): 5.2 ± 0.5 g | Mean (±SEM) von Frey Paw Withdrawal threshold following the 7th consecutive dose ([1]; tranilast 400 mg/kg oral twice-daily, time 0 h (pre-dose)): 5.2 ± 0.4 g | Mean (±SEM) von Frey Paw Withdrawal threshold following the 7th consecutive dose ([1]; tranilast 400 mg/kg oral twice-daily, time 0 h (pre-dose), listed as tranilast): 5.2 (±0.4) g | Mean (±SEM) von Frey Paw Withdrawal threshold following the 7th consecutive dose ([1]; tranilast 400 mg/kg oral twice-daily, time 0.15 h): 6.0 ± 0 g | Mean (±SEM) von Frey Paw Withdrawal threshold following the 7th consecutive dose ([1]; tranilast 400 mg/kg oral twice-daily, time 0.5 h): 6.25 ± 0.2 g | Mean (±SEM) von Frey Paw Withdrawal threshold following the 7th consecutive dose ([1]; tranilast 400 mg/kg oral twice-daily, time 0.75 h): 7.5 ± 0.5 g | Mean (±SEM) von Frey Paw Withdrawal threshold following the 7th consecutive dose ([1]; tranilast 400 mg/kg oral twice-daily, time 1 h): 8.75 ± 0.25 g | Mean (±SEM) von Frey Paw Withdrawal threshold following the 7th consecutive dose ([1]; tranilast 400 mg/kg oral twice-daily, time 1 h, listed as tranilast): 8.8 (±0.3) g | Mean (±SEM) von Frey Paw Withdrawal threshold following the 7th consecutive dose ([1]; tranilast 400 mg/kg oral twice-daily, time 1.25 h): 7.8 ± 0.25 g | Mean (±SEM) von Frey Paw Withdrawal threshold following the 7th consecutive dose ([1]; tranilast 400 mg/kg oral twice-daily, time 1.5 h): 8.0 ± 0 g | Mean (±SEM) von Frey Paw Withdrawal threshold following the 7th consecutive dose ([1]; tranilast 400 mg/kg oral twice-daily, time 2 h): 7.8 ± 0.25 g | Mean (±SEM) von Frey Paw Withdrawal threshold following the 7th consecutive dose ([1]; tranilast 400 mg/kg oral twice-daily, time 3 h): 6.5 ± 0.3 g | Mean duration of action ([1]; tranilast 400 mg/kg oral): 3 h | Time of peak anti-allodynia post-dosing ([1]; tranilast 400 mg/kg oral): 0.75 to 1.25 h | Mean (±SEM) AUC (area under the normalized PWT versus time curve) ([1]; tranilast 400 mg/kg oral): 6.3 ± 0.9 | Mean (±SEM) Peak response (PWT) ([1]; tranilast 400 mg/kg oral): 8.75 ± 0.25 | Mean (±SEM) % MPR at peak ([1]; tranilast 400 mg/kg oral): 62.2 ± 4.2% | Peak anti-allodynic response compared with vehicle [1, 3]: significantly (p<0.05) greater | Relief of tactile allodynia in the hindpaws [1, 3]: significant relief of tactile allodynia; also recorded: anti-allodynia was produced | % MPR at the time of peak effect compared with vehicle ([1]; tranilast 100, 200, 300 and 400 mg/kg oral, 7th consecutive twice-daily dose): significantly greater than that for vehicle | AUC of anti-allodynic response versus time compared with vehicle ([1]; tranilast 100, 200 and 400 mg/kg oral, 7th consecutive twice-daily dose): did not reach statistical significance | Dosing regimen producing the maximum anti-allodynic effect ([1]; tranilast 100-400 mg/kg oral, 7 consecutive twice-daily doses): maximum anti-allodynic effect appeared to be produced by the 300 mg/kg dosing regimen | Baseline PWT thresholds assessed prior to dose 1, 3, 5 and 7 ([1]; tranilast at all doses (100-400 mg/kg oral twice-daily)): not significantly different | Adverse (behavioural) effects [2]: no discernible adverse effects; also recorded: did not produce discernible adverse behavioural effects

From patent US20090042987A1, “TREATMENT OF NEUROPATHIC PAIN” (priority 2007, published 2009)
